The source of these data is ChEMBL document CHEMBL2150935, “Synthesis, biological evaluation and chemometric analysis of indazole derivatives. 1,2-Disubstituted 5-nitroindazolinones, new prototypes of antichagasic drug” (Eur J Med Chem, 2012).

Series [1] concerns Trypanosoma cruzi. In words: Growth inhibition of epimastigote form of Trypanosoma cruzi CL-B5 at 64 uM after 72 hrs by lacZ reporter gene assay. Format: functional. The conditions noted are these: CL-B5, 72 h, read-out: GI. In general terms: Reporter assays use an easily measured gene product as a stand-in for the process of interest.
Series [2] deals with Trypanosoma cruzi. In words: Growth inhibition of epimastigote form of Trypanosoma cruzi CL-B5 at 256 uM after 72 hrs by lacZ reporter gene assay. The class given is functional. The conditions noted are these: CL-B5, 72 h, read-out: GI.
The subject of series [3] is Trypanosoma cruzi. In words: Growth inhibition of epimastigote form of Trypanosoma cruzi CL-B5 at 128 uM after 72 hrs by lacZ reporter gene assay. Format: functional. The note with it: CL-B5, 72 h, read-out: GI.
The nature of series [4]: Growth inhibition of mouse J774 cells at 256 uM after 24 hrs by resazurin reduction assay. The class given is cell-based. The note with it: read-out: GI.
A short description of series [5]: Growth inhibition of mouse J774 cells at 64 uM after 24 hrs by resazurin reduction assay. The class given is cell-based. The note with it: read-out: GI. For orientation: The colour change of resazurin is a common sign of viable cells or microbes.
The test system of series [6] is Trypanosoma cruzi. In words: Growth inhibition of epimastigote form of Trypanosoma cruzi CL-B5 after 72 hrs by lacZ reporter gene assay. The class given is functional, organism-based. The conditions noted are these: CL-B5, 72 h.
Series [7] can be described thus: Growth inhibition of mouse J774 cells at 128 uM after 24 hrs by resazurin reduction assay. Format: cell-based. The conditions noted are these: read-out: GI.

As to `O=C(Cn1ccnc1[N+](=O)[O-])NCc1ccccc1` [BENZNIDAZOLE], the inhibition of growth at 64 µM in the series with Trypanosoma cruzi [1] is 71%. The inhibition of growth at 256 µM with Trypanosoma cruzi [2] amounted to 82%. Moreover, in the series on Trypanosoma cruzi [3], the inhibition of growth at 128 µM came to 79.8%. Further, in series [4], the inhibition at 24 h, 256 µM stood at 13%. In addition, the inhibition at 24 h, 64 µM in series [5] stood at 13%. In addition, in the series with Trypanosoma cruzi [6], the IC50 (commonly the midpoint of a concentration-inhibition curve) was found to be 27.3 µM. Moreover, the inhibition at 24 h, 128 µM in series [7] is 14.8%.

For `Cn1c2ccc([N+](=O)[O-])cc2c(=O)n1-c1ccccc1`, the inhibition of growth at 64 µM in the series with Trypanosoma cruzi [1] turned out to be 81.8%. The inhibition of growth at 256 µM in the series on Trypanosoma cruzi [2] turned out to be 89.1%. In the series with Trypanosoma cruzi [3], the inhibition of growth at 128 µM is 84.3%. Further, the inhibition at 24 h, 256 µM in series [4] was 20.7%. Besides, the inhibition at 24 h, 64 µM in series [5] was 0%. For the same compound, in series [7], the inhibition at 24 h, 128 µM was determined as 9.95%.

On to `CC(C)n1c2ccc([N+](=O)[O-])cc2c(=O)n1Cc1ccc2ccccc2c1`, for which the inhibition of growth at 64 µM in the series with Trypanosoma cruzi [1] was 10.7%. Also, the inhibition of growth at 256 µM with Trypanosoma cruzi [2] worked out at 24.2%. Also, the inhibition of growth at 128 µM in the series with Trypanosoma cruzi [3] is 13%. In addition, in series [4], the inhibition at 24 h, 256 µM worked out at 0%. Further, the inhibition at 24 h, 64 µM in series [5] came to 0%. The inhibition at 24 h, 128 µM in series [7] turned out to be 0%.

On to `Cn1nc2ccc([N+](=O)[O-])cc2c1OCc1ccccc1`, for which, in the series on Trypanosoma cruzi [1], the inhibition of growth at 64 µM came to 36.7%. Moreover, in the series on Trypanosoma cruzi [2], the inhibition of growth at 256 µM was found to be 65.5%. The inhibition of growth at 128 µM in the series with Trypanosoma cruzi [3] stood at 56.1%. Besides, the inhibition at 24 h, 256 µM in series [4] was 0%. Further, in series [5], the inhibition at 24 h, 64 µM was determined as 21.5%. The inhibition at 24 h, 128 µM in series [7] turned out to be 1.39%.

Regarding `CCCOc1c2cc([N+](=O)[O-])ccc2nn1Cc1ccc2ccccc2c1`, the inhibition of growth at 64 µM in the series with Trypanosoma cruzi [1] was found to be 61.2%. Besides, in the series with Trypanosoma cruzi [2], the inhibition of growth at 256 µM was found to be 22.5%. The inhibition of growth at 128 µM in the series on Trypanosoma cruzi [3] was 16.4%. Further, the inhibition at 24 h, 256 µM in series [4] turned out to be 0%. Also, the inhibition at 24 h, 64 µM in series [5] stood at 22.4%. Also, in series [7], the inhibition at 24 h, 128 µM turned out to be 28.5%.

Regarding `CC(C)n1c2ccc([N+](=O)[O-])cc2c(=O)n1-c1ccccc1`, in the series with Trypanosoma cruzi [1], the inhibition of growth at 64 µM was 28.3%. Also, the inhibition of growth at 256 µM in the series with Trypanosoma cruzi [2] came out at 84%. Besides, in the series on Trypanosoma cruzi [3], the inhibition of growth at 128 µM came out at 54.7%. In addition, in series [4], the inhibition at 24 h, 256 µM worked out at 16.8%. In series [5], the inhibition at 24 h, 64 µM stood at 0%. Besides, in series [7], the inhibition at 24 h, 128 µM came to 0%.

Turning to `CCCOc1c2cc([N+](=O)[O-])ccc2nn1Cc1ccccc1`, in the series on Trypanosoma cruzi [1], the inhibition of growth at 64 µM is 15.7%. The inhibition of growth at 256 µM with Trypanosoma cruzi [2] was determined as 0%. Besides, the inhibition of growth at 128 µM in the series with Trypanosoma cruzi [3] turned out to be 26.1%. The inhibition at 24 h, 256 µM in series [4] stood at 0%. Besides, the inhibition at 24 h, 64 µM in series [5] stood at 0%. Also, the inhibition at 24 h, 128 µM in series [7] is 0%.

With `CCCn1c2ccc([N+](=O)[O-])cc2c(=O)n1Cc1ccc2ccccc2c1`, the inhibition of growth at 64 µM with Trypanosoma cruzi [1] was determined as 78%. In addition, the inhibition of growth at 256 µM with Trypanosoma cruzi [2] came out at 41.9%. Also, in the series on Trypanosoma cruzi [3], the inhibition of growth at 128 µM came out at 70.4%. In addition, in series [4], the inhibition at 24 h, 256 µM was 15.5%. Besides, the inhibition at 24 h, 64 µM in series [5] amounted to 0%. Further, in series [7], the inhibition at 24 h, 128 µM turned out to be 11.9%.

Consider `O=c1c2cc([N+](=O)[O-])ccc2n(Cc2ccccc2)n1Cc1ccccc1`, for which the inhibition of growth at 64 µM in the series with Trypanosoma cruzi [1] is 74.5%. In addition, in the series on Trypanosoma cruzi [2], the inhibition of growth at 256 µM turned out to be 69.2%. The inhibition of growth at 128 µM in the series on Trypanosoma cruzi [3] came to 83.7%. Besides, the inhibition at 24 h, 256 µM in series [4] is 57.9%. For the same compound, the inhibition at 24 h, 64 µM in series [5] stood at 9.77%. Also, in series [7], the inhibition at 24 h, 128 µM was determined as 64%.

With `CCCCCOc1c2cc([N+](=O)[O-])ccc2nn1Cc1ccccc1`, the inhibition of growth at 64 µM in the series on Trypanosoma cruzi [1] stood at 53.4%. For the same compound, the inhibition of growth at 256 µM with Trypanosoma cruzi [2] came out at 79.3%. Also, in the series on Trypanosoma cruzi [3], the inhibition of growth at 128 µM is 78.8%. Moreover, in series [4], the inhibition at 24 h, 256 µM is 0%. In series [5], the inhibition at 24 h, 64 µM was found to be 0%. In addition, the inhibition at 24 h, 128 µM in series [7] was determined as 0%.

As to `Cn1nc(OCCc2ccccc2)c2cc([N+](=O)[O-])ccc21`, the inhibition of growth at 64 µM with Trypanosoma cruzi [1] was 67%. Moreover, the inhibition of growth at 256 µM in the series with Trypanosoma cruzi [2] turned out to be 49.4%. For the same compound, in the series on Trypanosoma cruzi [3], the inhibition of growth at 128 µM stood at 40.6%. Further, the inhibition at 24 h, 256 µM in series [4] is 0%. Moreover, the inhibition at 24 h, 64 µM in series [5] came to 0%. Moreover, in series [7], the inhibition at 24 h, 128 µM was 2.99%.
